Reference: patent US10066270B2, “Methods and kits used in classifying adrenocortical carcinoma” (THE TRANSLATIONAL GENOMICS RESEARCH INSTITUTE, priority 2010, dated 2018)

What was measured:
PTTG1 [1] = experiment: PTTG1 expression in SW-13 ACC cell line, relative to beta-actin; assay type: cell-based
Source text: FIG. 6 depicts the effect of vorinostat on the ACC cell line SW-13.

PTTG1 [2] = experiment: PTTG1 expression in H259R ACC cell line, relative to beta-actin; assay type: cell-based
Source text: FIG. 7 depicts the effect of vorinostat on the ACC cell line H259R.

adrenocortical carcinoma = conditions: ACC patients; cited from earlier work

Compound	effect on PTTG1 expression (PTTG1 [1])	effect on PTTG1 expression (PTTG1 [2])	patients showing a response (adrenocortical carcinoma)	side effects (adrenocortical carcinoma)
O=C(CCCCCCC(=O)Nc1ccccc1)NO [Vorinostat]	reduces PTTG1 expression	reduces PTTG1 expression	–	–
Clc1ccc(C(c2ccccc2Cl)C(Cl)Cl)cc1 (stereo not shown) [mitotane]	–	–	approximately 22%	severe, dose limiting side effects
